From patent US9809623B2, “α4β7 peptide monomer and dimer antagonists” (Protagonist Therapeutics, Inc., priority 2014, dated 2017) come the findings set out here.

The IC50 is the concentration that gives 50% inhibition.

Numbered stars: 1 amine (or outer) side, 2 acyl side, 3 side chain; on linkers, the order of the positions; unused ones are H or OH. Bridge positions count the residues as written; N and C are the ends. Square brackets hold non-standard residues; d marks the D form. Peptide text beside a SMILES is read from it. I, II: the chains in the order shown. 2Nal = N[C@@H](Cc1ccc2ccccc2c1)C(=O)O; Diglycolyl = O=C(COCC(=O)[*:2])[*:1]; NMeR = CN[C@@H](CCCNC(=N)N)C(=O)O; Tic = O=C(O)[C@@H]1Cc2ccccc2CN1; β3hE = N[C@@H](CCC(=O)O)CC(=O)O; Pen = CC(C)(S)[C@H](N)C(=O)O

For assay [1], the target named is T1, α4β7 (Mus musculus, UniProt P26011+Q00651).
T1 construct: host or cells: TK1 mouse T cells
T1 sequence (Q00651 34-1039 limits assumed): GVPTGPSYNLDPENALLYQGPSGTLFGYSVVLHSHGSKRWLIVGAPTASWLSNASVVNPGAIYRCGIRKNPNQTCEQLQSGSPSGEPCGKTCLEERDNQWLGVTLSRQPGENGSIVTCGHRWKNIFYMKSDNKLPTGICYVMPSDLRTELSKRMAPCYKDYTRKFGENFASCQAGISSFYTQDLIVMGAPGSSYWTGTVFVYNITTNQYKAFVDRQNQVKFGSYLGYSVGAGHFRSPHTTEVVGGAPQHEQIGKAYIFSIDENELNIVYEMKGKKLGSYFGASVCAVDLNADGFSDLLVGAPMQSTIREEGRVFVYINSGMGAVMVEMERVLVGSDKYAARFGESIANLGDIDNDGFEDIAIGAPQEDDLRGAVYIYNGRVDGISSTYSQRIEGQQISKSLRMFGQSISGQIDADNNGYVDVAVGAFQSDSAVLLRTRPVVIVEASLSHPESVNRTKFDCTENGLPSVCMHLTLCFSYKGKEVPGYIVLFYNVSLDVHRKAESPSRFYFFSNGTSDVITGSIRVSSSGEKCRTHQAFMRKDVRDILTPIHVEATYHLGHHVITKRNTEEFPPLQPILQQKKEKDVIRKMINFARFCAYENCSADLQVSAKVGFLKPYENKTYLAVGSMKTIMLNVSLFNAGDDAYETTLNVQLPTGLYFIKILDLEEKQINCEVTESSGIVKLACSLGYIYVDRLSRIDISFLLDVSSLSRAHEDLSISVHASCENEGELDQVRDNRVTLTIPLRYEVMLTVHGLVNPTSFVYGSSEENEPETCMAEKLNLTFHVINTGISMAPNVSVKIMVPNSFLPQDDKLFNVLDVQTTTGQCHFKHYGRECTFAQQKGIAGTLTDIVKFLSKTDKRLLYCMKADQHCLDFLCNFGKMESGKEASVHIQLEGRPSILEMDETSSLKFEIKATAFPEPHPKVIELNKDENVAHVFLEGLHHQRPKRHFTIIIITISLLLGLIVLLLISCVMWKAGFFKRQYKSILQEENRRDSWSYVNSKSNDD
T1 sequence (P26011 20-806): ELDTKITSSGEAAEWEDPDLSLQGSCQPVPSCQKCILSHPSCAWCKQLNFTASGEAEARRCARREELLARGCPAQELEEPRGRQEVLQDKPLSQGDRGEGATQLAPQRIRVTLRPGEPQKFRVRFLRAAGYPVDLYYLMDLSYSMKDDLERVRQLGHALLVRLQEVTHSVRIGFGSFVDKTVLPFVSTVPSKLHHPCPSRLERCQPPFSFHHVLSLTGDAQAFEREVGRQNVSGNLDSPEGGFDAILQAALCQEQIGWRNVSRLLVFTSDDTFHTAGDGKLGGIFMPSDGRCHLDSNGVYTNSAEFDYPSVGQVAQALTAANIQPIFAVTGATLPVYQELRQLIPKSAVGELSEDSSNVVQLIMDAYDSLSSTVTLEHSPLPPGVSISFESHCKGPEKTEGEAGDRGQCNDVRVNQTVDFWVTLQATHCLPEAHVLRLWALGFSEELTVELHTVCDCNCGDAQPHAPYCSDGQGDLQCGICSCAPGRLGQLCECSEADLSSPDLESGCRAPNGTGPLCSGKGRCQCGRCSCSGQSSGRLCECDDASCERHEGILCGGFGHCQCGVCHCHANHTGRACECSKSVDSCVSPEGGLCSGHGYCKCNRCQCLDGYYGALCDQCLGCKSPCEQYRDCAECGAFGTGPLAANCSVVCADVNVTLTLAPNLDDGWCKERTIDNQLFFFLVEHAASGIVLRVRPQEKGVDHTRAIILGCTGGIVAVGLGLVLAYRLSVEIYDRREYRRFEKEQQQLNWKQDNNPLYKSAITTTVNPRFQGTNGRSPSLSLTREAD
In words: α4β7 Cell Adhesion Assay (Mouse), TK1 cells. Format: cell-based. Particulars: Table 3-B, Potency (α4β7); range classes; read-out: α4β7 cell(MU) IC50. As to the method: TK1 cells (ATCC # ATCC-CRL-2396) were cultured in RPMI 1640 with 2 mM L-glutamine adjusted to contain 1.5 g/L sodium bicarbonate, 4.5 g/L glucose, 10 mM HEPES, and 1.0 mM sodium pyruvate (ATCC#30-2001) and supplemented with 0.1 mM non-essential amino acids, (ATCC #30-2116) 0.05 mM 2-mercaptoethanol (Invitrogen #21985) and 10% serum (Fetal Bovine Serum, Invitrogen #16140-071), and Penicillin-Streptomycin (Invitrogen #15140-122) at 100 units of penicillin and 100 μg of streptomycin per ml. The cells were washed two times in DMEM medium (ATCC #30-2002) supplemented with 0.1% BSA, 10 mM HEPES pH 7 and 1 mM MnCl2. The cells were re-suspended in supplemented DMEM medium at a density of 4×10^6 cells/ml.
A Nunc MaxiSorp plate was coated with Recombinant human MAdCAM-1 Fc Chimera (R&D #6065-MC) at 200 ng per well in 100 μl per well in 1×PBS and incubated at 4° C. overnight. The solution was then removed by shaking, blocked with 250 ul per well PBS containing 1% BSA, and incubated at 37° C. for 1 hr. The solution was removed by shaking. DATK 32 (anti-mouse α4β7) and peptides were diluted by serial dilution in a final volume of 50 ul per well (2× concentration). To each well, 50 ul of cells (200,000 cells) are added and the plate is incubated at 37° C., 5% CO2 for 30-45 min to allow cell adhesion. The plate was manually washed three times with supplemented DMEM, 100 ul per wash. After the final wash, 100 ul/well of supplemented DMEM and […] of MTT reagent (ATTC cat#30-1010K) was added to each well. Wells were incubated at 37° C. with 5% CO2 for 2-3 hrs until purple precipitate was visible. 100 μl of Detergent Reagent (ATTC cat#30-1010K) was added to each well. The plate was then wrapped with Para film to prevent evaporation, and left overnight at room temperature in the dark. The plate was shaken for 5 min and the absorbance at 570 nm was measured. To calculate the dose response, the absorbance value of control wells not containing cells was subtracted from each test well.

Assay [2] has as its target T2, α4β7 (Homo sapiens, UniProt P13612+P26010). In words: α4β7-MAdCAM Cell Adhesion Assay (RPMI 8866 human cells). Format: cell-based. More on the design: host or cells: RPMI 8866 human B lymphoblastoid cells. The note with it: Table 3-B, Potency (α4β7); range classes; read-out: α4β7 cell (Hu) IC50. The method, boiled down:
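Washed RPMI 8866 cells (200,000/well) in DMEM with 0.1% BSA, 10 mM HEPES pH 7, 1 mM MnCl2 adhered to rh MAdCAM-1/Fc-coated wells with serially diluted peptides, 30-45 min at 37 °C. After three washes, bound cells quantified by MTT, A570, cell-free background subtracted for dose response.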

In assay [3] the target is T3, α4β1 (Homo sapiens, UniProt P05556+P13612, DEL729-798).
T3 construct: purchased R&D Systems 5668-A4
T3 sequence (P13612 34-977 limits assumed, stated change not applied): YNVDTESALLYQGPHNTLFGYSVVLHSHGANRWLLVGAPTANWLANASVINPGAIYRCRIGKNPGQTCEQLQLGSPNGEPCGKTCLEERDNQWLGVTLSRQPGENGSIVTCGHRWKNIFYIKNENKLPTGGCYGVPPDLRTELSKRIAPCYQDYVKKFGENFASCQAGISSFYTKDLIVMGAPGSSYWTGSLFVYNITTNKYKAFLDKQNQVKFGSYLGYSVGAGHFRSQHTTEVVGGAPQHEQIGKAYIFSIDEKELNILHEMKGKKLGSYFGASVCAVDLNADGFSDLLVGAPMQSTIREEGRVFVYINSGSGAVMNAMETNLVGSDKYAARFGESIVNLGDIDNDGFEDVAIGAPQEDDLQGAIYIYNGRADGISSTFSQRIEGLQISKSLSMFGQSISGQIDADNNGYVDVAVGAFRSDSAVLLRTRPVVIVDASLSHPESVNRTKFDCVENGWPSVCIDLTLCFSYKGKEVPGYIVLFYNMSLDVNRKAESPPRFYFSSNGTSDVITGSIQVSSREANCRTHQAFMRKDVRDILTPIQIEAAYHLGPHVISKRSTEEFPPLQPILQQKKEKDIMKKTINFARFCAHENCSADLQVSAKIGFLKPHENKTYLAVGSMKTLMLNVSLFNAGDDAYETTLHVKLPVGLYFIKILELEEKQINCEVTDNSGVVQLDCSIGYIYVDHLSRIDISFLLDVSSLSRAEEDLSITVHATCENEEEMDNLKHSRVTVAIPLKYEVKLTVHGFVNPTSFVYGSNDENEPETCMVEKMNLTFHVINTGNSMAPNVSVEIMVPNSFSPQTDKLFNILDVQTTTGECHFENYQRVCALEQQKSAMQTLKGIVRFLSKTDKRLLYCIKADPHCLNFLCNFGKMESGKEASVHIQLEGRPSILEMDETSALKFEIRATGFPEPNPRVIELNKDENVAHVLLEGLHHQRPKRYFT
T3 sequence (P05556 21-728 limits assumed, stated change not applied): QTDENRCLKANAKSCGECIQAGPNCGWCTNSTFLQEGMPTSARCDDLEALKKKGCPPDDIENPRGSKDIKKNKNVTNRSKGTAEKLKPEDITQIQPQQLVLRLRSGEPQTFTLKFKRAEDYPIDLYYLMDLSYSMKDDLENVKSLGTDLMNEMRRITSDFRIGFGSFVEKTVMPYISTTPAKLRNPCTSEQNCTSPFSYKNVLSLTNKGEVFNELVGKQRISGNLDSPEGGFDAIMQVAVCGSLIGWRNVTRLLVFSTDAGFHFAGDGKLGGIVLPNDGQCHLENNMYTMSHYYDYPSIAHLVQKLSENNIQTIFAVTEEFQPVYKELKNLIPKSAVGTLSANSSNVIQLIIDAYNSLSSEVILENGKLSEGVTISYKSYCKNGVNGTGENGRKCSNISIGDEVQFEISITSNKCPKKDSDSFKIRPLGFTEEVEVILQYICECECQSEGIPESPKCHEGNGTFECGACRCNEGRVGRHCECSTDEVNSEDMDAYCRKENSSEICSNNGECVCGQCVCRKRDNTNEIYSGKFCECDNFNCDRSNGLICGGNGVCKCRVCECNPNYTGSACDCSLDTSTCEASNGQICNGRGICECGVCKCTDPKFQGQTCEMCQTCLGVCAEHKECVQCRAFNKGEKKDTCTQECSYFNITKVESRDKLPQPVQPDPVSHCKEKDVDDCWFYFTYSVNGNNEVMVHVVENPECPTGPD
In words: α4β1-VCAM Competition ELISA. In kind it is binding. Particulars: Table 3-B, Selectivity (α4β1); range classes; read-out: α4β1 ELISA IC50. As to the method:
A Nunc MaxiSorp plate was coated with rh VCAM-1/CD106 Fc chimera (R&D #862-VC) at 400 ng/well in 50 ul per well in 1×PBS and incubated overnight at 4° C. The solution was removed by shaking and then blocked with 250 ul of 1% BSA in 1×PBS per well. The wells were then incubated at room temperature for 1 hr with shaking. Each well was then washed once with wash buffer (50 mM Tris-HCl pH7.6, 100 mM NaCL, 1 mM MnCl2 or MgCl2, 0.05% Tween-20). 25 ul of serial dilutions of peptides starting at 200 μM in assay buffer (Assay buffer: 50 mM Tris-HCl pH7.6, 100 mM NaCl, 1 mM MnCl2 or MgCl2, 0.05% Tween-20) was added to each well. Additionally, 25 ul of α4β1 (R&D Systems #5668-A4) was added to each well at a fixed concentration of 120 nM. The final peptide and α4β1 concentrations were 100 μM and 60 nM, respectively. The plates were then incubated at 37° C. for 2 hr. The solution was then removed by shaking, and each well was washed three times with wash buffer. 50 ul of 9F10 antibody at 4 ug/ml (purified mouse anti-human CD49d, BD Bioscience Cat#555502) was then added to each well, and the plate was incubated at room temperature for 1 hr with shaking. The solution was again removed by shaking, and each well was washed three times with wash buffer. 50 ul of peroxidase-conjugated AffiniPure Goat anti-mouse IgG (Jackson immune research cat #115-035-003) diluted in 1:5000 in assay buffer was added to each well. The plate was incubated at room temperature for 30 min with shaking. Each well was then washed 3 times with wash buffer. 100 ul of TMB was then added to each well and closely observe during developing time. The reaction was stepped with 2N H2SO4 and absorbance was read at 450 nm.

The target in assay [4] is T2, α4β7. In words: PBMC Memory T Cell Adhesion Assay, adhesion to MAdCAM-1. In kind it is cell-based. The note with it: Table 3-B; range classes; read-out: PBMC IC50. The protocol:
Fresh CD4+/CD45RO+ memory T cells were isolated from human peripheral blood mononuclear cell (PBMC) donors by Aragen Bioscience Inc. (Morgan Hill, Calif.). The assay plate was prepared using IgG Fc capture antibody (donkey anti human) immobilized at 500 ng/well in 50 mM sodium bicarbonate buffer, pH 9.5, ON, 4C onto a Greiner Fluotrac plate (100 ul per well). The plate was rinsed two time with Blocking Buffer (25 mM Tris HCl, pH7.5, 150 mM NaCl, 1.5% BSA, 0.05% Tween), and blocked with Blocking Buffer for 2 hours at 37 C or 5 hours at RT using 200 ul per well. The Blocking Buffer was removed and either MAdCAM-1 or VCAM-1 at 400 ng/well in Blocking Buffer was added and the plate incubated overnight at 4C (100 ul per well). The plate was washed two times with Blocking Buffer, and rinsed once with 200 ul Binding Media (DMEM phenol red free, 10 mM HEPES, 1×Na pyruvate, 1× Glutamine, and supplemented with 1 mM MnCl2 prior to use). To prepare cells, approximately 25 million CD4+/CD45RO+ memory T cells were counted by trypan blue exclusion using a haemocytometer to determine viability and cell count. The cells were transferred to a 50 ml conical tube, and centrifuged at 1200 rpm for 10 minute. The media was aspirated and the cell pellet resuspended in 15 ml Binding Media. The cells were centrifuged again and resuspended in the appropriate amount of Binding Media to be used for assays (50 ul of cells per well at 2× the final density). To each well, and equal volume (50 ul) of test compound was added and the plate was incubated for 1.5 hours at 37 C, 5% CO2. Each well was rinsed 3× with 150 ul per well of Binding Media. […] The plate was incubated at 37 C, 5% CO2, for 45 minutes. The plate was protected from light by using black adhesive seals. Fluorescence intensity was measured using a Molecular Devices Gemini EM Fluorescent Plate Reader (Ex 485/Em530, Bottom Read, Reading Sensitivity=20). IC50 curves are generated using Graph Pad Prism and the curves analyzed using analyzed using a non-linear regression (four parameters) algorithm. The log (concentration) versus RFU (Ex485/Em530) was plotted to determine IC50 values.

Assay [5] deals with cell types in human whole blood. In words: FACS binding specificity in human whole blood. Format: cell-based. Particulars: 1 nM, 1 mM MnCl2. As to the method: To further evaluate the selectivity of Peptide X in human blood, the fluorescent dye Alexa 647 was conjugated to Peptide X at the same position used for attaching biotin. […] Heparinized human whole blood was supplemented with 1 mM MnCl2, and stained with the Peptide X-Alexa 647 conjugate or biotinylated vedolizumab for 1 hour at room temperature. The samples were fixed (red blood cells lysed) and washed. The vedolizumab samples were stained separately with streptavidin Alexa 647 for stain for 30 minutes at room temperature. FACS analysis was used to assess binding of the peptide or vedolizumab to a broad panel of cell types including NK cells, basophils, monocytes, eosinophils, neutrophils, CD4 naïve T cells, CD4 memory T cells, CD8 naïve T cells, CD8 memory T cells, and B cells. […] The binding specificity for vedolizmab shown in Table 7 is also very similar to that reported in the literature (Soler et al, JPET 330:864-875, 2009).
(Flow cytometry measures light scatter and fluorescence of single cells or particles in a stream.)

As for `COC(=O)CC[C@H](NC(=O)[C@H](Cc1c[nH]c2ccccc12)NC(=O)[C@H]1NC(=O)[C@H](CC(C)C)NC(=O)[C@H]([C@@H](C)O)NC(=O)[C@H](CC(=O)O)NC(=O)[C@H](CO)NC(=O)[C@H](CCCNC(=N)N)N(C)C(=O)[C@@H](NC(C)=O)C(C)(C)SSC1(C)C)C(=O)N[C@H](CCCCNC(=O)COCC(=O)NCCCC[C@@H](NC(=O)[C@H](CCC(=O)OC)NC(=O)[C@H](Cc1c[nH]c2ccccc12)NC(=O)[C@H]1NC(=O)[C@H](CC(C)C)NC(=O)[C@H]([C@@H](C)O)NC(=O)[C@H](CC(=O)O)NC(=O)[C@H](CO)NC(=O)[C@H](CCCNC(=N)N)N(C)C(=O)[C@@H](NC(C)=O)C(C)(C)SSC1(C)C)C(N)=O)C(N)=O` [compound 86] (I: Ac-[Pen][NMeR]SDTL[Pen]WE(OMe)[dK]-NH2 / II: Ac-[Pen][NMeR]SDTL[Pen]WE(OMe)[dK]-NH2; disulfide I:1-I:7, II:1-II:7; linker I:10-II:10 via Diglycolyl), the concentration for half-maximal inhibition (IC50) in assay [1] and in assay [2] was less than 10 nM in each case.

As for `CC(=O)N[C@@H]1C(=O)N(C)[C@@H](CCCNC(=N)N)C(=O)N[C@@H](CO)C(=O)N[C@@H](CC(=O)O)C(=O)N[C@@H]([C@@H](C)O)C(=O)N[C@@H](CC(C)C)C(=O)N[C@H](C(=O)N[C@@H](Cc2c[nH]c3ccccc23)C(=O)N[C@@H](CCC(=O)O)CC(=O)O)C(C)(C)SSC1(C)C` [compound 146] (Ac-[Pen][NMeR]SDTL[Pen]W[β3hE]-OH; disulfide 1-7), the results for the IC50 in assay [3], in assay [1] and in assay [2] were 1000 to 10000 nM, 50 to 100 nM and 50 to 100 nM, respectively.

For `CC(=O)N[C@@H]1C(=O)N(C)[C@@H](CCCNC(=N)N)C(=O)N[C@@H](CO)C(=O)N[C@@H](CC(=O)O)C(=O)N[C@@H]([C@@H](C)O)C(=O)N[C@@H](CC(C)C)C(=O)N[C@H](C(=O)N2Cc3ccccc3C[C@H]2C(=O)N[C@@H](CCC(=O)O)CC(N)=O)C(C)(C)SSC1(C)C` [compound 154] (Ac-[Pen][NMeR]SDTL[Pen][Tic][β3hE]-NH2; disulfide 1-7), the IC50 in assay [3] is 1000 to 10000 nM; in assay [1], 1000 to 10000 nM; in assay [2], 100 to 500 nM.

`CC(=O)N[C@@H]1C(=O)N(C)[C@@H](CCCNC(=N)N)C(=O)N[C@@H](CO)C(=O)N[C@@H](CC(=O)O)C(=O)N[C@@H]([C@@H](C)O)C(=O)N[C@@H](CC(C)C)C(=O)N[C@H](C(=O)N[C@@H](Cc2ccc3ccccc3c2)C(=O)N[C@@H](CCC(=O)O)CC(N)=O)C(C)(C)SSC1(C)C` [compound 155] (Ac-[Pen][NMeR]SDTL[Pen][2Nal][β3hE]-NH2; disulfide 1-7): the IC50 lay in the range of 1000 to 10000 nM in assay [3], 25 to 50 nM in assay [1] and 25 to 50 nM in assay [2].

As for `CC(=O)N[C@@H]1C(=O)N(C)[C@@H](CCCNC(=N)N)C(=O)N[C@@H](CO)C(=O)N[C@@H](CC(=O)O)C(=O)N[C@@H]([C@@H](C)O)C(=O)N[C@@H](CC(C)C)C(=O)N[C@H](C(=O)N[C@@H](Cc2ccc(C(C)(C)C)cc2)C(=O)N[C@@H](CCC(=O)O)CC(=O)N[C@H](CCCCNC(=O)CN(CC(=O)NCCCC[C@@H](NC(=O)C[C@H](CCC(=O)O)NC(=O)[C@H](Cc2ccc(C(C)(C)C)cc2)NC(=O)[C@H]2NC(=O)[C@H](CC(C)C)NC(=O)[C@H]([C@@H](C)O)NC(=O)[C@H](CC(=O)O)NC(=O)[C@H](CO)NC(=O)[C@H](CCCNC(=N)N)N(C)C(=O)[C@@H](NC(C)=O)C(C)(C)SSC2(C)C)C(N)=O)C(=O)CCN)C(N)=O)C(C)(C)SSC1(C)C` [compound 166], the IC50 in assay [4] and in assay [2] was less than 10 nM each time.

vedolizumab [reference compound]: in assay [5], the “Percent positive staining, Basophils” value amounted to 86%; the “Percent positive staining, CD4 memory T cells” value is on record as 22%; the “Percent positive staining, CD4 naïve T cells” value was 55%; the “Percent positive staining, CD8 memory T cells” value came out at 36%. Moreover, in assay [5], the “Percent positive staining, CD8 naïve T cells” value is given as 53%; the “Percent positive staining, CD19+ B cells” value is 85%; the “Percent positive staining, Eosinophils” value stood at 91%; the “Percent positive staining, Monocytes” value came to 7%. Also, in assay [5], the “Percent positive staining, NK cells CD16+ 56+” value stood at 42% and the “Percent positive staining, Neutrophils” value worked out at 0.45%.
